Key:
[1] = tested on: scopolamine-induced amnesic mice; assay: Elevated plus maze (EPM), scopolamine-induced amnesia; assay type: in vivo; conditions: for effect on TLT vs amnesic group: scopolamine 1 mg/kg i.p.
From the text: Elevated plus maze paradigm is an important behavioral model for evaluation of anti-amnesic potentials in mice. This apparatus comprised of two open and two closed arms with dimensions of 16 cm × 5 cm × 12 cm and elevated 25 cm from the floor on a wooden stand. The EPM was designed in plus shape from two acrylic sheets having a central platform with dimensions of 5 cm × 5 cm. Initially, mice were placed in one of the open arms in such a way that it was directed away from the central platform. Then TLT was recorded after the mice moved to the closed arm, with their four legs from the open arm and then the mice were returned to their home cage. The time of exploration of the apparatus for each animal was 90 s. […] Reduction of TLT indicated memory-enhancing effect of the test samples. The inflexion ratio (IR) was calculated as: IR=L0−L1/L0 where L1 presents the initial transfer latency (s), and L0 is the retention transfer latency (s).

[2] = tested on: scopolamine-induced amnesic mice; assay: Y-maze test, scopolamine-induced amnesia
Protocol: A total of sixteen groups of mice, with six in each group, were used in the experiment. Vehicle treated group (Normal control group) were administered 10 mL/kg (p.o) of normal saline. […] Sample treatment groups were administered 7.5 mg/kg and 15 mg/kg (p.o) of synthesized compounds, respectively.
The dimensions of the arms were 15.5 cm high, 6 cm wide, 20 cm long and connected with each other with an angle of 120°. This test was conducted for a 5 min duration for each animal. The order and number of arm entries made by each animal after placing in one arm were recorded. Complete arm entry in any given arm was considered to be when the hind paws were completely inside, and the alternation was the consecutive arm entries into three different arms by each mouse. Ethanol 70% v/v solution was used to clean the Y-maze arena to avoid olfactory cues between each test. […] Mice were freely allowed to explore the objects when they were initially placed at the center of the apparatus. The formula was used to calculate the %SAP by recording the same arm returns (SAR), alternate arm returns (AAR) and the number of arm entries.

[3] = target: T1, BuChE activity in the hippocampi of mice brains (Mus musculus, UniProt Q03311); assay: Ex vivo BuChE activity in the brain hippocampus; conditions: vs scopolamine treated group, n = 6
T1 construct: from tissue; host or cells: mouse bilateral hippocampus homogenate, supernatant
T1 sequence (Q03311 30-603): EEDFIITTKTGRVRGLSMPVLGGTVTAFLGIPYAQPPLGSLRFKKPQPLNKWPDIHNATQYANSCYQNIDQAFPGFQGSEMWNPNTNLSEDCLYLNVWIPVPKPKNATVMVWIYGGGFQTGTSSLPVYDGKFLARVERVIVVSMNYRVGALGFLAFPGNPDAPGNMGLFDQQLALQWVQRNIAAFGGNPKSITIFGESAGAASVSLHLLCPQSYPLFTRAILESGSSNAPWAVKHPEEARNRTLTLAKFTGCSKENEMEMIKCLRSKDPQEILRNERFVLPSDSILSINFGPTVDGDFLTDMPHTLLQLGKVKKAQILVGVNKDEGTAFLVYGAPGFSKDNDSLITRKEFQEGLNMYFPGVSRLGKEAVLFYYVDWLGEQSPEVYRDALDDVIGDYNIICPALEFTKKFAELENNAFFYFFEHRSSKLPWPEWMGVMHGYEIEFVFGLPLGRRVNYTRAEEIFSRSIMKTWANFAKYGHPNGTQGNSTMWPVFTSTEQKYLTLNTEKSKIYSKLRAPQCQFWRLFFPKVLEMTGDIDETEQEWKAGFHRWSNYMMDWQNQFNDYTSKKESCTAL
Protocol: (§1) After the behavioral study, the mice were sacrificed by decapitation, providing a quick and painless death by cervical dislocation. The isolated brain of each animal in chilled phosphate buffer saline was subjected into biomarker assays using AChE and BuChE enzymes.
Mice were sacrificed within 24 h of the behavior study; brains were dissected and stored at −80 °C. The bilateral hippocampus was homogenized before the assay into volumes of 0.01 M phosphate buffer (2.7 mM KCl, 137 mM NaCl, 2 mM KH2PO4, 10 mM Na2HPO4) and centrifuged at 4 °C for 30 min at 12,000× g. Supernatant was used for the measurement of cholinesterase (AChE and BuChE) activity.
Butyrylcholinesterase (BuChE) activity of the synthesized compounds were measured according to Ellman method with slight modification. BuSCh was hydrolyzed by BuChE and choline iodide produced, which reacted with DNTB, and then the production of TNB. The TNB was quantitated by calorimetry that indicated the BuChE activity. BuChE assay was accomplished in 96-well plate and every reaction mixture contained 40 µL sample, 80 µL DTNB (0.25 mg/mL) and 70 µL BuSCh (7.5 mM). The absorbance was determined at 37 °C after incubation for 60 min.

AChE = target: T2, AChE (Electrophorus electricus, UniProt O42275); assay: biochemical; conditions: AChE from electric eel, Ellman's method, n = 3; read-out: AChEI (IC50 (nM))
T2 construct: The enzymes AChE and BuChE were obtained from electric eel and equine serum, respectively; from tissue; host or cells: electric eel
T2 sequence (O42275 24-633): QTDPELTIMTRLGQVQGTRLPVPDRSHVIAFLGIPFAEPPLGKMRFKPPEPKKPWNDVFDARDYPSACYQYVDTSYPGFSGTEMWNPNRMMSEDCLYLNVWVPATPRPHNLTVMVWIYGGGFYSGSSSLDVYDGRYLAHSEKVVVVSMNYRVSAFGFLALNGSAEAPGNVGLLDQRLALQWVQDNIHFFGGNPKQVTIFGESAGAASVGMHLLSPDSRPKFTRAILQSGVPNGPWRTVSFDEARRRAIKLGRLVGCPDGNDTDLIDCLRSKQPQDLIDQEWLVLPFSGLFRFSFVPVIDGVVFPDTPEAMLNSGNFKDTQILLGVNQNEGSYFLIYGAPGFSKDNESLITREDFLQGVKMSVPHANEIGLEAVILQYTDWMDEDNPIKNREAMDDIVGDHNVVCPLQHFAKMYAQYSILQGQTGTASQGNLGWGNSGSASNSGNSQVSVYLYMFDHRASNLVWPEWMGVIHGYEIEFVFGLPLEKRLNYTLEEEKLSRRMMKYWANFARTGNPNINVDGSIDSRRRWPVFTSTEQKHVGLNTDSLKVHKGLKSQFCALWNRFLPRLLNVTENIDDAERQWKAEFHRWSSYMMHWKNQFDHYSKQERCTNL
Protocol: (§2) The in vitro cholinesterase assay of the synthesized curcumin analogs were carried out according to the Ellman’s method with slight modification. The enzymes AChE and BuChE were obtained from electric eel and equine serum, respectively. […] The final concentrations of AChE 0.03 U/mL and 0.01 U/mL of BuChE were achieved. […] The experiment was started by adding 5 µL enzyme solutions to cuvette, then 205 µL test sample and 5 µL DTNB reagents were added. Substrate solution (5 µL) was added, and the solution mixture was kept in a water bath for 15 min at 30 °C.

BuChE = target: T3, BuChE (Equus caballus, UniProt P81908); assay: biochemical; conditions: BuChE from equine serum, Ellman's method, n = 3; read-out: BuChEI (IC50 (nM))
T3 construct: The enzymes AChE and BuChE were obtained from electric eel and equine serum, respectively; from tissue; host or cells: equine serum
T3 sequence (P81908 whole entry): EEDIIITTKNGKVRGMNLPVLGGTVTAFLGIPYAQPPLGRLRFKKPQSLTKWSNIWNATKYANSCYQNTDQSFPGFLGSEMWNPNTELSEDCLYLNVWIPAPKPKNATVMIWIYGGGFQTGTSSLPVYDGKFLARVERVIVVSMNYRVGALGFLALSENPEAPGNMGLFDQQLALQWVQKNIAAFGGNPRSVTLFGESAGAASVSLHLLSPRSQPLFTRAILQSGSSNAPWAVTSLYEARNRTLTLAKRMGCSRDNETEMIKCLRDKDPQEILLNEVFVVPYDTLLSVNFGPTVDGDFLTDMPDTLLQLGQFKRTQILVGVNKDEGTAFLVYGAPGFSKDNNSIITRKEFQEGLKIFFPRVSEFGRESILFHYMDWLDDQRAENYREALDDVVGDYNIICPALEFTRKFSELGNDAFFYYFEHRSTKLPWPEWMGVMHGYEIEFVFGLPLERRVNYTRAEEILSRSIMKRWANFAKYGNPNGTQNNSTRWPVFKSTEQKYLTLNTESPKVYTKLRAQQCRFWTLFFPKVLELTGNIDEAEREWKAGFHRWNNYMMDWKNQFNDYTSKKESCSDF
Protocol: as §2

[4] = target: T4, AChE activity in the hippocampi of mice brains (Mus musculus, UniProt P21836); assay type: in vivo; conditions: ex vivo, vs scopolamine treated group, n = 6
T4 construct: from tissue; host or cells: mouse bilateral hippocampus homogenate, supernatant
T4 sequence (P21836 32-614): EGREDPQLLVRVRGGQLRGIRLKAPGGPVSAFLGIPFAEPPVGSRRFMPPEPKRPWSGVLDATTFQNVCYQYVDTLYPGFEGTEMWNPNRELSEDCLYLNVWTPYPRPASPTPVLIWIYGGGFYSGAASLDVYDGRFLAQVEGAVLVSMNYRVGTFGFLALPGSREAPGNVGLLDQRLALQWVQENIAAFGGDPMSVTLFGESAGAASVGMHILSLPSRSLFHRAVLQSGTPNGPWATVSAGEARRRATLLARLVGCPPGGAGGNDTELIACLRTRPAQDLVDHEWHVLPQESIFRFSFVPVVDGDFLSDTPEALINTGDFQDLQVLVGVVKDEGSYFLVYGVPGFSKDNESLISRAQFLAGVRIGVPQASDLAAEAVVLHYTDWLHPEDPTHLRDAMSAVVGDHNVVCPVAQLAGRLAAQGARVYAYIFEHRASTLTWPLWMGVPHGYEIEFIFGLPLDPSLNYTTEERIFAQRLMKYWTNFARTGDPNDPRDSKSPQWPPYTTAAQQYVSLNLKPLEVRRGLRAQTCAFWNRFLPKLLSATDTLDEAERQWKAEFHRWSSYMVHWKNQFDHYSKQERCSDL
Protocol: as §1
Mice were sacrificed within 24 h of the behavior study; brains were dissected and stored at −80 °C. […] Supernatant was used for the measurement of cholinesterase (AChE and BuChE) activity.
Acetylcholine/Acetyl cholinesterase assay Kit was used for the determination of AChE activity, according to the standard procedure. The assay was carried out using 96-well plate, and every reaction comprised of 100 µL sample, 200 µM Amplex Red reagent, 50 µM of acetylcholine, 1 U/mL horseradish peroxidase (HRP) and 0.1 U/mL choline oxidase in buffer solution. Incubation period for the reaction mixture was 20 min at room temperature in the dark. The fluorescence intensity at 560 nm excitation and 580 nm emission wavelength was measured.

[5] = tested on: scopolamine-induced amnesic mice; assay: Novel object recognition test (NORT), scopolamine-induced amnesia; assay type: in vivo
Protocol: In this study, the memory-enhancing potentials of synthesized compounds were determined using novel object recognition test mice model. Dimensions of the apparatus were 40 cm × 40 cm × 30 cm and designed from Plexiglass in a box shape. After acclimatization, the mice were habituated with the apparatus for 2–3 min one day before the test. Initially, in the sample phase, two identical objects were placed in the two corners of the apparatus and the mice were allowed to freely explore the apparatus. The objects in the apparatus were explored by each animal either by touching the objects or keeping their noses within 2 cm of them. […] Mice were allowed again to freely explore both the objects in a similar way as in sample phase, and the time spent by each animal exploring the novel and familiar object (F) was recorded.
The following formula was used for calculation of discrimination index. D1=N—F /N+F
D1 = discrimination index; N = novel object; F = familiar object

[6] = 7.5 mg/kg p.o. 7 days, scopolamine 1 mg/kg i.p.
[7] = 15 mg/kg p.o. 7 days, scopolamine 1 mg/kg i.p.
[8] = long-term memory (after 24 h), 7.5 mg/kg
[9] = long-term memory (after 24 h), 15 mg/kg

Compound | TLT vs vehicle treated group ([1]; scopolamine 1 mg/kg i.p. alone (amnesic group)) | % spontaneous alternation performance (% SAP) ([2]; scopolamine 1 mg/kg i.p. alone (amnesic group), normal controls 70.16 ± 4.58) [%] | effect on TLT vs amnesic group ([1]; 7.5 mg/kg p.o. 7 days) | effect on TLT vs amnesic group ([1]; 15 mg/kg p.o. 7 days) | effect on scopolamine-increased BuChE activity in hippocampus [3] | IC50 (AChE) [nM] | IC50 (BuChE) [nM] | effect on scopolamine-increased AChE activity in hippocampus [4] | % spontaneous alternation performance (% SAP) [2, 6] | % spontaneous alternation performance (% SAP) [2, 7] | discrimination index (DI) [5, 8] | discrimination index (DI) [5, 9] | discrimination index (DI) ([5]; short-term memory, 7.5 mg/kg) | discrimination index (DI) ([5]; short-term memory, 15 mg/kg)
CN1[C@@H]2C[C@@H](OC(=O)[C@H](CO)c3ccccc3)C[C@H]1[C@@H]1O[C@@H]12 [Scopolamine] | significantly higher transfer latency time | 37.66 ± 3.94 |  |  |  |  |  |  |  |  |  |  |  | 
O=C(/C=C/c1ccc(Cl)cc1)CC(=O)/C=C/c1ccc(Cl)cc1 [Compound 1d, (1E,6E)-1,7-bis(4-chlorophenyl)hepta-1,6-diene-3,5-dione] |  |  | significantly reduced TLT | significantly reduced TLT | decreased the increased BuChE activity | 113 | 378 | markedly reduced the increased activity of AChE | 55.66 ± 2.82% | 67.66 ± 2.84% | 63.78% | 64.61% | 61.43% | 62.03%
CN(C)c1ccc(/C=C/C(=O)CC(=O)/C=C/c2ccc(N(C)C)cc2)cc1 [Compound 1e, (1E,6E)-1,7-bis(4-(dimethylamino)phenyl)hepta-1,6-diene-3,5-dione] |  |  | non-significant | non-significant |  | 3270 | 6640 |  | non-significant | non-significant | no significant change | no significant change | no promising potential | no promising potential
COc1ccc(/C=C/C(=O)CC(=O)/C=C/c2ccc(OC)cc2)cc1 [Compound 1c, (1E,6E)-1,7-bis(4-methoxyphenyl)hepta-1,6-diene-3,5-dione] |  |  | reduced TLT | reduced TLT | decreased the increased BuChE activity | 467 | 1360 | markedly reduced the increased activity of AChE | 47.16 ± 2.77% | 62.33 ± 184% | 60.58% | 62.28% | 60.16% | 61.25%

Source: PMC9029618, “Attenuation of Scopolamine-Induced Amnesia via Cholinergic Modulation in Mice by Synthetic Curcumin Analogs” (Molecules, 2022)
